Results: patent US20250312469A1 (CANGET BIOTEKPHARMA, priority 2024, published 2025)
Values joined by “and” are separate entries in the source; they are usually repeats but may differ in a detail not shown here. Equal entries are not always repeated.

Columns and labels:
[1] = test system: 22Rv1 CRPC tumors; test: 22Rv1 CRPC tumor model
[2] = test system: TA100; test: Ames Bacterial Reverse Mutation Assay
[3] = target: human serum albumin (HSA) (Homo sapiens, UniProt P02768); test: UV spectra (310-450 nm) with HSA; type: physicochemical
Sequence of human serum albumin (HSA) (P02768 25-609): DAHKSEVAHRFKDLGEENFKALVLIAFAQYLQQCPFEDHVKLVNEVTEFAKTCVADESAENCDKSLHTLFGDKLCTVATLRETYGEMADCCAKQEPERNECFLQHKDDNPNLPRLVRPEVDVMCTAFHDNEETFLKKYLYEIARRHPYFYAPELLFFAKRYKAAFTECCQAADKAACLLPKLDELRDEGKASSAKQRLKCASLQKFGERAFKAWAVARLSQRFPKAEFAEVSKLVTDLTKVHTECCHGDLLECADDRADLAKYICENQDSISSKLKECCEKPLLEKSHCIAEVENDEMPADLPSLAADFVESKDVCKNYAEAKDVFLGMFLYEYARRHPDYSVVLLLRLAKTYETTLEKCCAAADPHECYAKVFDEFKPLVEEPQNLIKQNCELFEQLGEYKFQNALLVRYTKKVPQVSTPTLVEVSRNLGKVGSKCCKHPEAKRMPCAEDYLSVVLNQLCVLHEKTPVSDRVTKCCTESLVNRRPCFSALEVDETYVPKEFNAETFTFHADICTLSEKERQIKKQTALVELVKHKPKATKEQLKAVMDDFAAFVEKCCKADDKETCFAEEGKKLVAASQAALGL

[4] = test system: P-gp; test: in vitro; conditions: human
[5] = test system: WP2-uvrA; test: Ames Bacterial Reverse Mutation Assay; conditions: for Background Lawn Code / Colony Counts Average / Colony Counts Replicate 1-3: WP2-uvrA
[6] = FL118 drug substance chemical stability (HPLC)
[7] = test system: LAPC9-AI vs. LAPC9-AD cells; test: LAPC9 organoid assay; type: cell-based
[8] = Liver microsome stability; conditions: for microsomal CLint at 0.5 μM / half-life at 0.5 μM: both; for microsomal CLint at 0.5 μM: CLint (intrinsic clearance); for microsomal CLint at 0.5 μM / half-life at 0.5 μM / % Remaining of Initial (n = 1): human liver microsome

CCC1(O)C(=O)OCc2c1cc1n(c2=O)Cc2cc3cc4c(cc3nc2-1)OCO4 (stereo not shown) [FL118]
antitumor efficacy ([1]; 5 mg/kg oral, weekly×4): completely inhibited 22Rv1 tumor growth
toxicity (clinical observations, body weight) ([1]; therapeutic dose): exhibited no toxicity
bacterial strain mutation [2]: does not induce
mean revertant colonies over negative control ([2]; +/− S9): less than 2 fold
Background Lawn Code ([2]; TA100, 0.010 μM +S9): 1
Colony Counts Average ([2]; TA100, 0.010 μM +S9): 92
Colony Counts Replicate 1-3 ([2]; TA100, 0.010 μM +S9): 101 and 96 and 79
Background Lawn Code ([2]; TA100, 0.010 μM −S9): 1
Colony Counts Average ([2]; TA100, 0.010 μM −S9): 77
Colony Counts Replicate 1-3 ([2]; TA100, 0.010 μM −S9): 72 and 79 and 80
Background Lawn Code ([2]; TA100, 0.10 μM +S9): 1
Colony Counts Average ([2]; TA100, 0.10 μM +S9): 89
Colony Counts Replicate 1-3 ([2]; TA100, 0.10 μM +S9): 96 and 74 and 98
Background Lawn Code ([2]; TA100, 0.10 μM −S9): 1
Colony Counts Average ([2]; TA100, 0.10 μM −S9): 87
Colony Counts Replicate 1-3 ([2]; TA100, 0.10 μM −S9): 89 and 77 and 94
Background Lawn Code ([2]; TA100, 1.0 μM +S9): 1
Colony Counts Average ([2]; TA100, 1.0 μM +S9): 99
Colony Counts Replicate 1-3 ([2]; TA100, 1.0 μM +S9): 105 and 106 and 87
Background Lawn Code ([2]; TA100, 1.0 μM −S9): 1
Colony Counts Average ([2]; TA100, 1.0 μM −S9): 83
Colony Counts Replicate 1-3 ([2]; TA100, 1.0 μM −S9): 94 and 75 and 81
interaction with HSA (UV absorbance decrease) ([3]; 10 μM in PBS with 4% HSA): strong interaction
interaction with HSA (UV absorbance decrease) ([3]; 10 μM, high NaCl salt, 4% HSA): strong interaction
Papp A→B at 120 min, 1 μM ([4]; Caco-2, pH 7.4, Papp AVG, Caco-2, A-to-B, without valspodar): 6.97 ×10⁻⁶ cm/s
Papp B→A at 120 min, 1 μM ([4]; Caco-2, pH 7.4, Papp AVG, Caco-2, B-to-A, without valspodar): 8.1 ×10⁻⁶ cm/s
Papp A→B at 120 min, 1 μM ([4]; Caco-2, pH 7.4, Papp R1, Caco-2, A-to-B, without valspodar): 7.27 ×10⁻⁶ cm/s
Papp B→A at 120 min, 1 μM ([4]; Caco-2, pH 7.4, Papp R1, Caco-2, B-to-A, without valspodar): 7.35 ×10⁻⁶ cm/s
Papp A→B at 120 min, 1 μM ([4]; Caco-2, pH 7.4, Papp R2, Caco-2, A-to-B, without valspodar): 6.67 ×10⁻⁶ cm/s
Papp B→A at 120 min, 1 μM ([4]; Caco-2, pH 7.4, Papp R2, Caco-2, B-to-A, without valspodar): 8.86 ×10⁻⁶ cm/s
recovery at 120 min, 1 µM ([4]; Caco-2, pH 7.4, Recovery (%), Caco-2, A-to-B, without valspodar): 43%
recovery at 120 min, 1 µM ([4]; Caco-2, pH 7.4, Recovery (%), Caco-2, B-to-A, without valspodar): 48%
recovery at 120 min, 1 µM ([4]; Caco-2, pH 7.4, with valspodar 1 µM, Recovery (%), Caco-2, A-to-B, + 1 μM Valspodar): 46%
recovery at 120 min, 1 µM ([4]; Caco-2, pH 7.4, with valspodar 1 µM, Recovery (%), Caco-2, B-to-A, + 1 μM Valspodar): 48%
bacterial strain mutation [5]: does not induce
mean revertant colonies over negative control ([5]; +/− S9): less than 2 fold
Background Lawn Code ([5]; 0.010 μM +S9): 1
Colony Counts Average ([5]; 0.010 μM +S9): 40
Colony Counts Replicate 1-3 ([5]; 0.010 μM +S9): 38 and 47 and 34
Background Lawn Code ([5]; 0.010 μM −S9): 1
Colony Counts Average ([5]; 0.010 μM −S9): 29
Colony Counts Replicate 1-3 ([5]; 0.010 μM −S9): 35 and 22 and 31
Background Lawn Code ([5]; 0.10 μM +S9): 1
Colony Counts Average ([5]; 0.10 μM +S9): 47
Colony Counts Replicate 1-3 ([5]; 0.10 μM +S9): 48 and 38 and 54
Background Lawn Code ([5]; 0.10 μM −S9): 1
Colony Counts Average ([5]; 0.10 μM −S9): 30
Colony Counts Replicate 1-3 ([5]; 0.10 μM −S9): 27 (2×) and 36
Background Lawn Code ([5]; 1.0 μM +S9): 1
Colony Counts Average ([5]; 1.0 μM +S9): 39
Colony Counts Replicate 1-3 ([5]; 1.0 μM +S9): 35 and 38 and 43
Background Lawn Code ([5]; 1.0 μM −S9): 1
Colony Counts Average ([5]; 1.0 μM −S9): 27
Colony Counts Replicate 1-3 ([5]; 1.0 μM −S9): 27 and 31 and 24
Hygroscope [6]: 0.07% and 0.20% and 0.38%
purity and impurity retest [6]: still well passing the purity and impurity requirement
toxicity to AR−/lo LAPC9-AI vs AR+ LAPC9-AD cells [7]: selective toxicity
microsomal CLint at 0.5 μM ([8]; human, microsomes, calculated (in parentheses)): 18.6 µL/min/mg
microsomal CLint at 0.5 μM ([8]; human, microsomes, bound): < 23.1 µL/min/mg
half-life at 0.5 μM ([8]; human, microsomes, calculated (in parentheses), calculated half-life longer than the experiment): 1.25 h
half-life at 0.5 μM ([8]; human, microsomes, expressed as > the longest incubation time (60 min)): > 1 h
% Remaining of Initial (n = 1) ([8]; 0 min): 100%
% Remaining of Initial (n = 1) ([8]; 10 min): 93%
% Remaining of Initial (n = 1) ([8]; 20 min): 82%
% Remaining of Initial (n = 1) ([8]; 30 min): 76%
% Remaining of Initial (n = 1) ([8]; 60 min): 58%
half-life ([8]; human, microsomes): long half-life
